Measurements: patent US10828315B2 (Madrigal Pharmaceuticals, Inc., priority 2013, dated 2020)

Legend:
[1] = tested on: human urinary bladder cancer cell line RT-112; experiment: Cytotoxicity assay (CellTiter-Glo, 72 h), RT-112; assay type: cell-based; details: RT-112, 72 hours, read-out: Cytotoxicity (IC50, nM) RT-112
Protocol: (§1) Cytotoxicity of SDC-TRAP molecules was determined in three cancer cell lines. […] 80 μL of CellTiter-Glo was added to each well, followed by room temperature incubation in the dark for 15 minutes. Cell was determined by luminescence. IC50 was calculated using XLfit™ software.

[2] = target: T1, Hsp90α (Homo sapiens, UniProt P07900); experiment: Hsp90α binding assay (fluorescence polarization, FITC-labeled geldanamycin; Example 11); details: read-out: EC50 (Hsp90 binding assay)
T1 construct: purchased BPS Bioscience 50294
Protocol: An Hsp90^α fluorescence assay kit from BPS Bioscience (Cat #50294) containing Hsp90 recombinant enzyme, FITC-labeled geldanamycin, assay buffer and a low binding 384-well plate was used to assay Hsp90^α binding. Dithiothreitol (DTT) (Cat # D0643) and bovine serum albumin (BSA) (Cat # A2153) were obtained from Sigma-Aldrich. Fluorescence polarization was measured using a PHERAstar microplate reader (BMG LABTECH GmbH, Orienberg, Germany.)
The compounds were diluted to 1 mM in DMSO and loaded into a compound dilution plate to make 3-fold dilutions yielding a total of 8 concentrations. […] 5 mL of Hsp90^□ binding solution was prepared having a final concentration of 7 ng/[…]binding^□, 5 nM FITC-labeled geldanamycin, 2 mM DTT and 0.1 mg/mL BSA. 49 μL of binding solution was added to each microplate well, incubated at room temperature for 1 hour, then read using the PHERAstar microplate reader. The high control sample contained no compound plus Hsp90^α; the low control sample contained no compound and no Hsp90^α. […] The IC50 was calculated using GraphPad Prism 4 software.

[3] = tested on: human breast cancer cell line BT-474; experiment: Cytotoxicity assay (CellTiter-Glo, 72 h), BT-474; assay type: cell-based; details: BT-474, 72 hours, read-out: Cytotoxicity (IC50, nM) BT-474
Protocol: as §1

[4] = tested on: human urinary bladder cancer cell line SW780; experiment: Cytotoxicity assay (CellTiter-Glo, 72 h), SW780; assay type: cell-based; details: SW780, 72 hours, read-out: Cytotoxicity (IC50, nM) SW-780
Protocol: as §1

[5] = tested on: HER2; experiment: HER2 degradation assay with BT-474 cell line (Example 12, FACS); assay type: cell-based, human; details: BT-474 cells, overnight
[6] = tested on: Hsp90 client proteins (EGFR, MET, CDC2), Hsp70, DNA damage markers; experiment: Pharmacodynamics in SCLC xenograft tumors; assay type: in vivo
[7] = tested on: HCT-116 human colorectal xenografts; experiment: Mouse xenograft efficacy in HCT-116 colon cancer model; details: mouse, in vivo
Protocol: (§2) The cells were maintained in vitro as a monolayer culture in McCoy's 5a Medium. Fetal bovine serum was then be added to the medium. The final concentration of fetal bovine serum was 10%. Cells were cultured at 37° C. and 5% CO2. The tumor cells were routinely sub-cultured twice weekly by trypsin-EDTA treatment. Cells in an exponential growth phase were harvested and counted for tumor inoculation.
(§3) 100 18-22 g, 5-7 week old, female BALB/cA nude mice were inoculated with the HCT 116 cells (2.0×10^6, 1:1 with Matrigel) subcutaneously on the back of each animal (0.1 mL/mouse). When the average tumor volume reached about 150-250 mm^3, 60 of the inoculated mice was selected based on tumor growth and randomly grouped into 6 treatment groups (10 mice per group) according to the following table.
(§4) The administrations were made with 27-gauge IV needle.
(§5) During the treatment period, the implanted tumors were measured by caliper twice per week. The tumors were measured for the maximum width (X) and length (Y) and the tumor volumes (V) were calculated using the formula: V=(X^2Y)/2. The differences in the tumor volume between the control and treatment groups were analyzed for significance using the unpaired two-tailed Student's t-test. P<0.05 was considered to be statistically significant. The animal body weights were also weighed and recorded twice per week.

[8] = tested on: human SCLC tumor xenografts; experiment: Antitumor activity in human SCLC tumor xenografts; assay type: in vivo, mice; details: SCLC xenografts; day 46
[9] = tested on: HCT-116 human colorectal xenografts; details: female, BALB/cA nude, mouse, in vivo, iv
Protocol: as §2, §3, §4, §5

[10] = mouse, plasma, 1 h, 10 µM
[11] = tested on: H2AX phosphorylation, HSP70, EGFR, MET; experiment: Pharmacodynamics in CRC (HCT-116) xenograft tumors; assay type: in vivo, mouse; details: for H2AX phosphorylation: 24 hr
[12] = tested on: SK-OV-3 xenografts; experiment: Antitumor activity in SK-OV-3 ovarian cancer xenografts; assay type: in vivo, female Balb/c nude mice; details: SDC-TRAP-0063 200 mg/kg group; irinotecan alone and with ganetespib
Protocol: This model is sensitive to HSP90 inhibition.
However, once the dosing is discontinued all but 200 mg/kg of SDC-TRAP-0063 dose group maintained tumor growth inhibition for a prolonged period of time.

[13] = Artificial membrane permeability assay (PAMPA); details: same protocol, second table
[14] = Tissue distribution of ganetespib in mice bearing RERF human NSCLC xenografts; details: ganetespib 50 mg/kg IV
From the text: Tissue distribution of ganetespib in female CD-1 nu/nu mice bearing RERF human NSCLC xenografts

[15] = SCLC xenograft tumors, 24 hrs after drug exposure

CCNC(=O)c1nnc(-c2cc(C(C)C)c(O)cc2O)n1-c1ccc(Oc2ccc(C(=O)N[C@H]3C[C@H](O[C@H]4C[C@](O)(C(=O)CO)Cc5c(O)c6c(c(O)c54)C(=O)c4c(OC)cccc4C6=O)O[C@@H](C)[C@H]3O)cc2)cc1 [SDC-TRAP-0199, 5-(2,4-dihydroxy-5-isopropylphenyl)-N-ethyl-4-(4-(4-(((2S,3 S,4S,6R)-3-hydroxy-2-methyl-6-(((1S,3S)-3,5,12-trihydroxy-3-(2-hydroxyacetyl)-10-methoxy-6,11-dioxo-1,2,3,4,6,11-hexahydrotetracen-1-yl)oxy)tetrahydro-2H-pyran-4-yl)carbamoyl)phenoxy)phenyl)-4H-1,2,4-triazole-3-carboxamide]
IC50 [1]: 29 nM | EC50 [2]: 136 nM | IC50 [3]: 29 nM | IC50 [4]: 2300 nM | IC50 [5]: > 10 µM

CCc1c2c(nc3ccc(OC(=O)N4CCC(N5CCCCC5)CC4)cc13)-c1cc3c(c(=O)n1C2)COC(=O)[C@]3(O)CC [irinotecan, reference compound]
kinetics of acetyl-histone H3 induction ([6]; SCLC xenograft tumors, 24, 72 and 96 hrs): maximal induction of acetyl-histone H3 by 24 hr | antitumor activity in HCT-116 xenografts (FIG. 23) [7]: significantly inhibited the growth of HCT-116 human colorectal xenografts | mice found dead [8]: 1/8 | animal death during the treatment [9]: 20-30% | % Remaining (1 h) [10]: 32.5% | H2AX phosphorylation ([11]; HCT-116 tumors): stimulate H2AX phosphorylation at 24 hr | kinetics of H2AX phosphorylation ([11]; HCT-116 xenograft tumors): maximally induced at 4 hr and stable at 24 hr | antitumor activity in SK-OV-3 xenografts (FIG. 25) [12]: statistically significant inhibitory impact on the growth of SK-OV-3 xenografts

CCNC(=O)c1nnc(-c2cc(C(C)C)c(O)cc2O)n1-c1ccc(OC2CCN(c3cnc(C(=O)N[C@H]4C[C@H](O[C@H]5C[C@](O)(C(=O)CO)Cc6c(O)c7c(c(O)c65)C(=O)c5c(OC)cccc5C7=O)O[C@@H](C)[C@H]4O)cn3)CC2)cc1 [SDC-TRAP-0200, 5-(4-(4-(3-(2,4-dihydroxy-5-isopropylphenyl)-5-(ethylcarbamoyl)-4H-1,2,4-triazol-4-yl)phenoxy)piperidin-1-yl)-N-((2S,3S,4S,6R)-3-hydroxy-2-methyl-6-(((1S,3S)-3,5,12-trihydroxy-3-(2-hydroxyacetyl)-10-methoxy-6,11-dioxo-1,2,3,4,6,11-hexahydrotetracen-1-yl)oxy)tetrahydro-2H-pyran-4-yl)pyrazine-2-carboxamide]
IC50 [1]: 16 nM | Mass Retention [13]: 10.6% | EC50 [2]: 253 nM | IC50 [3]: 32 nM | IC50 [4]: 651 nM | IC50 [5]: > 10 µM

CC(C)c1cc(-c2n[nH]c(=O)n2-c2ccc3c(ccn3C)c2)c(O)cc1O [ganetespib, reference compound]
Hsp90 client proteins (EGFR, MET, CDC2) and Hsp70 expression [6, 15]: Hsp90 clients EGFR, MET and CDC2 are diminished | markers for DNA damage (acetyl-histone H3, p53, p-H2AX) [6, 15]: increases p-H2AX but has negligible effects on p53 and histone H3 | H2AX phosphorylation ([11]; HCT-116 tumors): induces H2AX phosphorylation | HSP70 and Hsp90 client protein (EGFR, MET) expression ([11]; HCT-116 tumors, 24 hr exposure): induces HSP70 expression and reduces the level of EGFR and MET compared to vehicle | plasma concentration ([14]; DRD, 24 hr): <LLOQ | mean concentration in plasma relative to RBC ([14]; 5 min): about 10 times | persistence in tumor versus plasma and other tissues ([14]; up to 24 hr): persist longer in tumor than in plasma or any other tissues studied
